US11279736B2, “Conformationally-preorganized, MiniPEG-containing gamma-peptide nucleic acids” (CARNEGIE MELLON UNIVERSITY, priority 2011, dated 2022)
Where two headings read alike, the source gives them in different places. Marks after values point to notes of the source that are not given here.

Tests used:
[1] = system: DNA fragment, 171 bp in length (no complementary sequence); assay: Non-denaturing gel-shift assay for non-specific (off-target) binding
Method: FIG. 6 illustrates the results of a non-denaturing gel-shift assay that was aimed at evaluating the extent of non-specific binding for an unmodified PNA oligomer (PNA6) and a oligomer containing the inventive R-MP-γPNA monomer (PNA10).
To assess the extent of off-target binding of PNA and ^R-MPγPNA, a gel-shift assay is performed. In this case, a DNA fragment, 171 bp in length, is incubated with different concentrations of PNA6 and PNA10 (Table 1) in 10 mM sodium phosphate buffer at 37° C. for 16 hr. The two oligomers contain identical nucleobase sequence but differ from another at the γ-backbone. PNA6 is unmodified, whereas PNA10 is modified at every other position with R-MP-γ side-chain. Following incubation, the samples are separated on non-denaturing polyacrylamide gel and stained with SYBR-Gold.

[2] = Water solubility, saturated concentration by UV-spectroscopy; assay type: physicochemical; settings: saturated solution in water
Method: To determine whether inclusion of miniPEG in the backbone of a Formula I PNA has an effect on water solubility of the resultant oligomer, saturating concentrations of PNA6 through 10 (Table 1) were prepared in water and the concentrations of each solution was measured by UV-spectroscopy. The incorporation of a single MP unit enhances the solubility of PNA6 by nearly 2-fold (Table 5). The solubility of the oligomers is further improved, albeit to a smaller extent, with additional MP units.

[3] = system: immobilized complementary DNA; assay: Surface plasmon resonance (SPR) hybridization kinetics; assay type: binding; settings: SPR; for association rate constant ka / dissociation rate constant kd: 1:1 binding model; for dissociation rate constant kd: † values approach limits of detection
Method: FIG. 4 illustrates surface plamon resonance (SPR) sensorgrams (solid black lines) and fits (dotted lines) for hybridization of PNA probes to immobilized complementary DNA. Solutions contained 30 nM PNA. Error bars at t=420 sec illustrate standard deviations for three separate trials.
Surface plasmon resonance (SPR) analysis is used to study the hybridization kinetics of ^R-MPγPNA-DNA and ^R-MPγPNA-RNA duplexes. Briefly, SPR was performed as follows. According to one embodiment, the PNA probe was immobilized to the chip while the DNA target was captured from solution. In another embodiment, a biotinylated version of the DNA target is immobilized on a streptavidin-conjugated, carboxymethylated dextran chip at a relatively low surface density (ca. 100 response units) of DNA targets to limit mass transport effects on the association kinetics. Solutions containing 10-50 nM PNA oligomers are allowed to flow over the chip for about 420 seconds, at which point the flow is switched to a PNA-free buffer to allow net dissociation of the hybridized PNA.

complementary RNA strand = assay: UV-melting / van't Hoff analysis of PNA-RNA hybrid duplexes; assay type: binding; settings: for Kd / −ΔG° / −ΔH° / −ΔTS°: PNA-RNA duplex, 298 K, UV-melting curve fitting
Method: (§1) FIGS. 2A-2B illustrate UV-melting profiles of PNA-DNA (FIG. 2A) and PNA-RNA (FIG. 2B) hybrid duplexes at a strand concentration of […] each in 10 mM sodium phosphate buffer at pH 7.4. While both the heating and cooling runs were performed because they both have nearly identical profiles UV-melting for only the heating runs are shown.
A similar pattern is observed for a R-MP-γPNA-RNA duplex, but the observed increase in thermal stability is lower for a R-MP-γPNA-RNA duplex as compared to a R-MP-γPNA-DNA duplex (FIG. 3B). The enhancement in thermal stability of a R-MP-γPNA-RNA duplex is only 3° C. for the first R-MP-γPNA-monomer that is incorporated into the PNA oligomer and this gain in thermal stability reduces to about 1.2° C. per R-MP-γPNA monomer for an oligomer made entirely R-MP-γPNA (PNA5). In contrast the gain in thermal stability is about 2.3° C./unit for R-MP-γPNA-DNA duplexes.
(§2) Further insights related to the contribution of miniPEG to the stability of the PNA-DNA duplex was obtained from van′t Hoff analysis. Data in Table 2 show the thermodynamic parameters associated with hybridization of PNA1 through 5 to a complementary DNA or RNA strand.

complementary DNA strand = assay: UV-melting / van't Hoff analysis of PNA-DNA hybrid duplexes; assay type: binding; settings: PNA-DNA duplex, 298 K; for Kd: UV melting; for −ΔG° / −ΔH° / −ΔTS°: averages of three trials
Method: as §1
UV-melting experiments were performed to determine the effect of MP on the thermal stability of PNA oligomers following hybridization to DNA or an RNA. FIG. 3A illustrates that the incorporation of a single miniPEG side-chain stabilized a PNA-DNA duplex by 4° C. […] However, increase in thermal stability tapers off to a value of about 2.3° C. per unit for the fully-modified oligomer, that is an oligomer made up of R-MP-γPNA groups only (e.g., PNA5).
as §2

[4] = system: DNA: 3′-[…]-5, X = A, C, G, T (SEQ ID NO: 11); settings: PNA-DNA, cited from earlier work
[5] = system: RNA: 3′-CGUACAXACU-5, X = A, C, G, U (SEQ ID NO: 12); settings: PNA-RNA, cited from earlier work
[6] = Temperature-dependent CD measurements of PNA oligomers; assay type: physicochemical; settings: 80° C.; 5 μM oligomer, 10 mM sodium phosphate buffer pH 7.4
Method: FIG. 1A illustrates CD spectra of PNA5 and PNA2 (Inset) as a function of temperature. Melting transition (Tm) of PNA2 through 5 as determined by CD, monitored at 260 nm. The oligomer concentration was 5 μM, prepared in 10 mM sodium phosphate buffer at pH 7.4.

[7] = range over mismatches, earlier study

Substance: H-ACGGGTAGAATAACAT-NH2 [PNA6] (all peptide nucleic acid (PNA); PNA oligomer with free N-terminus and C-terminal amide)
- intensity of the DNA band ([1]; 10 μM (PNA/DNA ratio of 25:1) or higher): completely disappeared
- intensity of the DNA band ([1]; increasing concentrations of oligomer, 37° C., 16 hr): drastic reduction
- Sat. conc. [2]: 39 mM

Substance: H-ACGGGTAGAATAACAT-NH2 [PNA7] (PNA; 1 R-MP-gamma unit; C-terminal amide; modified_base (8)..(8) R-MP-gamma-backbone modified nucleotide)
- Sat. conc. [2]: 76 mM

Substance: H-ACGGGTAGAATAACAT-NH2 [PNA8] (PNA; 3 R-MP-gamma units; C-terminal amide; modified_base (1)..(1) R-MP-gamma-backbone modified nucleotide; modified_base (8)..(8) R-MP-gamma-backbone modified nucleotide; modified_base (15)..(15) R-MP-gamma-backbone modified nucleotide)
- Sat. conc. [2]: 108 mM

Substance: H-ACGGGTAGAATAACAT-NH2 [PNA9] (PNA; 5 R-MP-gamma units; C-terminal amide; modified_base (3)..(3) R-MP-gamma-backbone modified nucleotide; modified_base (6)..(6) R-MP-gamma-backbone modified nucleotide; modified_base (9)..(9) R-MP-gamma-backbone modified nucleotide; modified_base (12)..(12) R-MP-gamma-backbone modified nucleotide; modified_base (15)..(15) R-MP-gamma-backbone modified nucleotide)
- Sat. conc. [2]: 350 mM

Substance: H-ACGGGTAGAATAACAT-NH2 [PNA10] (PNA; 8 R-MP-gamma units; C-terminal amide; modified_base (2)..(2) R-MP-gamma-backbone modified nucleotide; modified_base (4)..(4) R-MP-gamma-backbone modified nucleotide; modified_base (6)..(6) R-MP-gamma-backbone modified nucleotide; modified_base (8)..(8) R-MP-gamma-backbone modified nucleotide; modified_base (10)..(10) R-MP-gamma-backbone modified nucleotide; modified_base (12)..(12) R-MP-gamma-backbone modified nucleotide; modified_bas)
- intensity of the DNA bands ([1]; up to 20 μM (PNA/DNA ratio of 50:1)): remained fairly constant
- Sat. conc. [2]: >500 mM

Substance: H-GCATGTTTGA-NH2 [PNA1] (all peptide nucleic acid (PNA); C-terminal amide)
- association rate constant ka [3]: 470000 M⁻¹ s⁻¹
- dissociation rate constant kd [3]: 0.0013 s⁻¹
- Kd ([3]; read-out: Kd): 2.8 nM
- Kd (complementary RNA strand): 0.035 nM
- −ΔG° (complementary RNA strand): 14.3 kcal/mol
- −ΔH° (complementary RNA strand): 69.1 kcal/mol
- −ΔTS° (complementary RNA strand): 54.7 kcal/mol
- differential Tm (ΔTm), RNA versus DNA binding (complementary RNA strand; duplex with RNA compared to duplex with DNA): 10 °C
- Kd (complementary DNA strand): 2.5 nM
- −ΔG° (complementary DNA strand): 11.7 ± 0.24 kcal/mol
- −ΔH° (complementary DNA strand): 65.2 ± 1.2 kcal/mol
- −ΔTS° (complementary DNA strand): 53.5 ± 1.2 kcal/mol
- Tm ([4]; C<>T mismatch): 31 °C
- ΔTm between the perfect match and mismatch ([4]; C<>T mismatch): (−14)^† ° C.
- Tm ([4]; G<>T mismatch): 31 °C
- ΔTm between the perfect match and mismatch ([4]; G<>T mismatch): (−14) ° C.
- Tm ([4]; T(U)<>T mismatch): 35 °C
- ΔTm between the perfect match and mismatch ([4]; T(U)<>T mismatch): (−10) ° C.
- Tm ([4]; X = A (A-T perfect match)): 45 °C
- ΔTm, single-base mismatch (X=C, G, T) [4, 7]: −10 to −14 °C
- Tm ([5]; C<>T mismatch): 37 °C
- ΔTm between the perfect match and mismatch ([5]; C<>T mismatch): (−18) ° C.
- Tm ([5]; G<>T mismatch): 44 °C
- ΔTm between the perfect match and mismatch ([5]; G<>T mismatch): (−11) ° C.
- Tm ([5]; T(U)<>T mismatch): 40 °C
- ΔTm between the perfect match and mismatch ([5]; T(U)<>T mismatch): (−15) ° C.
- Tm ([5]; X = A (A-T perfect match)): 55 °C
- ΔTm, single-base mismatch (X=C, G, T) [5, 7]: −11 to −18 °C

Substance: H-GCATGTTTGA-NH2 [PNA2] (PNA; 1 R-MP-gamma unit; C-terminal amide; modified_base (6)..(6) R-MP-gamma-backbone modified nucleotide)
- association kinetics relative to the unmodified PNA ([3]; 30 nM PNA): approximately twice as fast
- association rate constant ka [3]: 970000 M⁻¹ s⁻¹
- dissociation rate constant kd [3]: 0.00041 s⁻¹
- Kd ([3]; ratio of dissociation and association rate constants, † values uncertain, read-out: equilibrium dissociation constant Kd): 0.42 nM
- Kd (complementary RNA strand): 0.0012 nM
- −ΔG° (complementary RNA strand): 16.3 kcal/mol
- −ΔH° (complementary RNA strand): 79.6 kcal/mol
- −ΔTS° (complementary RNA strand): 55.4 kcal/mol
- Kd (complementary DNA strand): 0.32 nM
- −ΔG° (complementary DNA strand): 12.9 ± 0.24 kcal/mol
- −ΔH° (complementary DNA strand): 76.2 ± 4.3 kcal/mol
- −ΔTS° (complementary DNA strand): 62.9 ± 3.82 kcal/mol
- CD profile / base-stacking at high temperature [6]: completely denatured
